# Earlier results in patent US20100055163A1, “FORMULATION OF NATURAL T[…] […] FROM THE GENUS OLEA IN LIPOSOMES” (UNIVERSIDAD DE GRANADA, priority 2006, published 2010).
# What was measured:
# [1] = tested on: parasites of the genus Cryptosporidium; set-up: dose or concentration left out as unconfirmed; conditions: MDCK cell lines
# HIV-1 protease = HIV-1 protease (Human immunodeficiency virus type 1 group M subtype B, UniProt P04585)
# [2] = tested on: acquired immunodeficiency virus; conditions: acts intracellularly
# [3] = tested on: membrane hepatocyte lipid peroxidation (LPO); conditions: rats
# rainbow trout = conditions: added to feed
compound,measurement,setting,value
"CC1(C)CC[C@]2(C(=O)O)CC[C@]3(C)C(=CC[C@@H]4[C@@]5(C)C[C@@H](O)[C@H](O)C(C)(C)[C@@H]5CC[C@]43C)[C@@H]2C1 [maslinic acid, 2-alpha, 3-beta-dihydroxy-28-carboxy-oleanene]",infection inhibition percentage,[1],92.3%
same,inhibiting activity in vitro of HIV-1 protease,HIV-1 protease,powerful inhibiting activity
same,exit of the virus from the infected cell towards the medium,[2],considerably inhibits
same,lipoperoxide levels and membrane hepatocyte susceptibility to lipid peroxidation (LPO),[3],reduces lipoperoxide levels and membrane hepatocyte susceptibility to lipid peroxidation (LPO)
same,hepatic organ and function,rainbow trout,significant improvement of the hepatic organ and function
